One block for each compound: values may come before it.
What was measured:
[1] = Solubility of optional additional components in non-aqueous solvents; type: physicochemical
Source text: Additional ingredients were chosen for their compatibility with (e.g., miscibility in) 1,3 propanediol, 1,2 propanediol, and 1,3 butanediol.

[2] = test system: transepidermal water loss; conditions: in vivo; cited from earlier work
melasma = conditions: cited from earlier work
[3] = Ability of polyol solvents to solubilize azelaic acid; type: physicochemical
Description: A series of experiments were performed to assess and optimize the components of the subject formulations.

[4] = Maximum concentration of azelaic acid solubilized with heat in a given solvent without precipitation upon cooling; type: physicochemical; conditions: in dimethyl isosorbide, relative to the approximately 10 to 12% of the diols
Source text: In order to determine a desirable ratio of azelaic acid to urea for certain compositions of this disclosure, the maximum concentration for azelaic acid that can be solubilized is first determined, with heat exposure, in a given solvent without precipitation upon cooling.

[5] = cited from earlier work
erythema (skin redness) = conditions: concentrations of 0.2%; cited from earlier work

Compound: COc1cc(CC(C(C)=O)C(C)=O)ccc1O [Acetyl zingerone]
- solubility ([1]; at 0.5-1% in 1,3 propanediol, 1,2 propanediol and 1,3 butanediol): readily soluble

Compound: CC(C)(CO)[C@@H](O)C(=O)NCCCO [Panthenol]
- concentration at which inhibition of transepidermal water loss is apparent [2]: ≥ 1%

Second part, led by results:

- ability to solubilize azelaic acid ([3]; solvent 1,2-hexanediol used alone): moderate
- ability to solubilize azelaic acid ([3]; solvent 1,2-propanediol (propylene glycol)): moderate
- ability to solubilize azelaic acid ([3]; solvent 1,3-butanediol (butylene glycol)): moderate
- ability to solubilize azelaic acid ([3]; solvent 1,3-propanediol): moderate
- ability to solubilize azelaic acid ([3]; solvent 1,5-pentanediol (pentylene glycol)): moderate
- ability to solubilize azelaic acid ([3]; solvent dimethyl isosorbide): very limited
- ability to solubilize azelaic acid ([3]; solvents glycerin and diglycerin): moderate and low
- maximum concentration for azelaic acid that can be solubilized [4]: significantly lower
Compound: O=C(O)CCCCCCCC(=O)O [azelaic acid]
- treatment differences in overall rating, reduction in lesion size and pigmentary intensity (melasma; 20% azelaic acid compared to 4% hydroquinone): no significant treatment differences
- allergic sensitization or exogenous ochronosis (melasma; 20% azelaic acid): no allergic sensitization or exogenous ochronosis observed
- good or excellent results in lightening melasma (melasma; 20% azelaic acid): 65%
- solubility in cosmetic oils ([5]; cosmetic oils): little or no solubility
- stability of azelaic acid in alcohol ([5]; ethyl alcohol, normal temperatures): unstable
- maximum azelaic acid in a water and azelaic acid solution ([5]; water): about 0.24 % by weight (w/w)

- solubility ([1]; in 1,3-propanediol): shows solubility
Compound: CC1(C)[C@@H](O[C@H]2O[C@H](C(=O)O)[C@@H](O)[C@H](O)[C@H]2O[C@@H]2O[C@H](C(=O)O)[C@@H](O)[C@H](O)[C@H]2O)CC[C@]2(C)[C@H]3C(=O)C=C4[C@@H]5C[C@@](C)(C(=O)O)CC[C@]5(C)CC[C@@]4(C)[C@]3(C)CC[C@@H]12 [glycyrrhizic acid]

- solubility ([1]; at a concentration of 0.2% in 1,3 propanediol, 1,2 propanediol and 1,3 butanediol): soluble
Compound: madecassoside
- ability to reduce erythema (skin redness) (erythema (skin redness)): desirable ability to reduce erythema
